Holding throughout (format): cell-based
Test [1] has as its system microorganism of Delvotest® MCS test medium. As to the kind of experiment: Delvotest MCS microbial inhibition test, sensitivity for different antibiotics, plate test or tube test (Example 2). As to the method:
[…] The sensitivity for different antibiotics was determined by investigating two sets of six experiments using either a plate test or a tube test system. The sensitivity was determined by reading the test at the moment at which an antibiotic-free control changed color.

Test [2] shares this test system. As to the kind of experiment: Production scale Delvotest MCS microbiological inhibition test, sensitivity for different antibiotics (Example 4). As to the method:
Two series of test systems were prepared on production scale. The first series is a commercially available Delvotest® MCS and the second series is as the first with Bromocresol Purple replaced with Bromothymol Blue (160 mg·l^−1). The sensitivity for different antibiotics was determined reading the test at the moment at which an antibiotic-free control changed color. The results are in the Table below (sensitivity values in ppb).

Test [3] has the same test system. As to the kind of experiment: Delvotest MCS microbial inhibition test, sensitivity for penicillin G (Example 1). As to the method: Commercially available Delvotest® MCS, prepared according to the methods described in EP 0005891, was adapted by the replacement of the indicator Bromocresol Purple by Bromothymol Blue (160 mg·l^−1). The sensitivity for penicillin G was determined by investigating samples containing different concentrations of penicillin G in different test systems. The results are summarized in the Table below (sensitivity values in ppb).

Test [4] has the same test system. As to the kind of experiment: Delvotest MCS type test systems with equal indicator concentration, sensitivity for penicillin G (Example 3). As to the method: Two test systems were prepared. The first system differs only from a commercially available Delvotest® MCS in that the concentration of Bromocresol Purple is 160 mg·l^−1, and the second series is as the first with Bromocresol Purple replaced with Bromothymol Blue (160 mg·l^−1). The sensitivity for penicillin G was determined reading the test at the moment at which an antibiotic-free control changed color. From the results as shown in the Table below (sensitivity values in ppb) it can be seen that the sensitivity of Bromothymol Blue is better then that of Bromocresol Purple at the same concentrations of indicator.

Setting [5] is: indicator Bromocresol Purple (BP), experiment # 0.
Where [6] appears, read: indicator Bromothymol Blue (160 mg·l^−1), plate test, experiment # 1.
Setting [7] is: indicator Bromothymol Blue (160 mg·l^−1), plate test, experiment # 2.
Setting [8] is: indicator Bromothymol Blue (160 mg·l^−1), plate test, experiment # 3.
The mark [9] stands for this setting: indicator Bromothymol Blue (160 mg·l^−1), plate test, experiment # 4.
Where [10] appears, read: indicator Bromothymol Blue (160 mg·l^−1), plate test, experiment # 5.
The mark [11] stands for this setting: indicator Bromothymol Blue (160 mg·l^−1), plate test, experiment # 6.
Setting [12] is: indicator Bromothymol Blue (160 mg·l^−1), tube test, experiment # 7.
Where [13] appears, read: indicator Bromothymol Blue (160 mg·l^−1), tube test, experiment # 8.
[14] abbreviates: indicator Bromothymol Blue (160 mg·l^−1), tube test, experiment # 9.
The mark [15] stands for this setting: indicator Bromothymol Blue (160 mg·l^−1), tube test, experiment # 10.
The mark [16] stands for this setting: indicator Bromothymol Blue (160 mg·l^−1), tube test, experiment # 11.
The mark [17] stands for this setting: indicator Bromothymol Blue (160 mg·l^−1), tube test, experiment # 12.
Where [18] appears, read: indicator Bromocresol Purple, Batch #1, three weeks after production.
Where [19] appears, read: indicator Bromothymol Blue (160 mg·l^−1), Batch #1, three weeks after production.

Take `Nc1ccc(S(=O)(=O)Nc2ncccn2)cc1` [Sulfadiazine]: the “sensitivity with Bromothymol Blue in comparison with Bromocresol purple” value in test [1] (comparison of the two indicators, in words) is listed as “identical”. In addition, the sensitivity in test [1] (setting [5]), in test [1] (setting [6]), in test [1] (setting [7]), in test [1] (setting [8]), in test [1] (setting [9]) and in test [1] (setting [10]) was 50 ppb throughout. Further, the sensitivity in test [1] (setting [11]), in test [1] (setting [12]), in test [1] (setting [13]), in test [1] (setting [14]), in test [1] (setting [15]) and in test [1] (setting [16]) was 50 ppb in each case. This compound also had a sensitivity in test [1] (setting [17]) of 50 ppb.

With `CC1(C)S[C@@H]2[C@H](NC(=O)[C@H](N)c3ccccc3)C(=O)N2[C@H]1C(=O)O` [Ampicillin], the sensitivity in test [1] (setting [5]) was 8 ppb; in test [1] (setting [6]), 2 ppb; in test [1] (setting [7]), 2 ppb; in test [1] (setting [8]), 2 ppb; in test [1] (setting [9]) it was 2 ppb; in test [1] (setting [10]) it was 2 ppb. The sensitivity in test [1] (setting [11]), in test [1] (setting [12]), in test [1] (setting [13]), in test [1] (setting [14]), in test [1] (setting [15]) and in test [1] (setting [16]) was 2 ppb in each case. Moreover, the sensitivity in test [1] (setting [17]) is recorded as 2 ppb; in test [2] (setting [18]), 6 ppb; in test [2] (setting [19]), 2 ppb.

In the case of `Cc1onc(-c2ccccc2Cl)c1C(=O)N[C@@H]1C(=O)N2[C@@H]1SC(C)(C)[C@@H]2C(=O)O` [Cloxacillin], the sensitivity was 40 ppb in test [1] (setting [5]); 10 ppb in test [1] (setting [6]); 10 ppb in test [1] (setting [7]); 10 ppb in test [1] (setting [8]); 10 ppb in test [1] (setting [9]); 10 ppb in test [1] (setting [10]). Besides, the sensitivity in test [1] (setting [11]) is given as 10 ppb; in test [1] (setting [12]) it was 20 ppb; in test [1] (setting [13]), 20 ppb; in test [1] (setting [14]) it was 20 ppb; in test [1] (setting [15]), 20 ppb; in test [1] (setting [16]), 20 ppb. Also, the sensitivity in test [1] (setting [17]) came out at 20 ppb; in test [2] (setting [18]), 40 ppb; in test [2] (setting [19]), 20 ppb.

In the case of `CC(=O)OCC1=C(C(=O)O)N2C(=O)[C@@H](NC(=O)CSc3ccncc3)[C@H]2SC1` [Cephapirin], the sensitivity in test [1] (setting [5]) was 8 ppb; in test [1] (setting [6]) it was 2 ppb; in test [1] (setting [7]), 2 ppb; in test [1] (setting [8]), 4 ppb; in test [1] (setting [9]) it was 6 ppb; in test [1] (setting [10]), 2 ppb. Besides, the sensitivity in test [1] (setting [11]) was 4-6 ppb; in test [1] (setting [12]), 4 ppb; in test [1] (setting [13]) it was 4 ppb; in test [1] (setting [14]), 4 ppb; in test [1] (setting [15]), 4 ppb; in test [1] (setting [16]), 4 ppb. Further, the sensitivity stood at 4 ppb in test [1] (setting [17]), 8 ppb in test [2] (setting [18]) and 4 ppb in test [2] (setting [19]).

Turning to `CC1(C)S[C@@H]2[C@H](NC(=O)Cc3ccccc3)C(=O)N2[C@H]1C(=O)O` [Penicillin G], the sensitivity in test [3] (indicator Bromocresol Purple, Penicillin G concentrations of 0, 1, 2, 3 and 4 ppb investigated) turned out to be 3 ppb; in test [3] (indicator Bromocresol Purple, Penicillin G concentrations of 0, 2, 4 and 6 ppb investigated) it was 4 ppb; in test [3] (indicator Bromothymol Blue (160 mg·l^−1), Penicillin G concentrations of 0, 1, 2, 3 and 4 ppb investigated), 2 ppb; in test [3] (indicator Bromothymol Blue (160 mg·l^−1), Penicillin G concentrations of 0, 2, 4 and 6 ppb investigated), 2 ppb; in test [1] (setting [5]), 3 ppb; in test [1] (setting [6]), 1 ppb. Also, the sensitivity is given as 2 ppb in test [1] (setting [7]); 1 ppb in test [1] (setting [8]); 1 ppb in test [1] (setting [9]); 1-2 ppb in test [1] (setting [10]); 1 ppb in test [1] (setting [11]); 2 ppb in test [1] (setting [12]). The sensitivity is given as 2 ppb in test [1] (setting [13]); 2 ppb in test [1] (setting [14]); 2 ppb in test [1] (setting [15]); 2 ppb in test [1] (setting [16]); 2 ppb in test [1] (setting [17]); 3 ppb in test [4] (indicator Bromocresol Purple (160 mg·l^−1)). Also, the sensitivity in test [4] (indicator Bromothymol Blue (160 mg·l^−1)) amounted to 2 ppb; in test [2] (indicator Bromocresol Purple, Batch #1, immediately after production), 3 ppb; in test [2] (setting [18]) it was 3 ppb; in test [2] (indicator Bromothymol Blue (160 mg·l^−1), Batch #1, immediately after production), 2 ppb; in test [2] (setting [19]) it was 2 ppb.

On to Neomycin, for which the sensitivity in test [1] (setting [5]) worked out at 600 ppb; in test [1] (setting [6]), 100 ppb; in test [1] (setting [7]), 100 ppb; in test [1] (setting [8]), 100 ppb; in test [1] (setting [9]), 100 ppb; in test [1] (setting [10]), 100 ppb. Moreover, the sensitivity turned out to be 100 ppb in test [1] (setting [11]); 200 ppb in test [1] (setting [12]); 200 ppb in test [1] (setting [13]); 200 ppb in test [1] (setting [14]); 200 ppb in test [1] (setting [15]); 200 ppb in test [1] (setting [16]). For the same compound, the figures for the sensitivity in test [1] (setting [17]), in test [2] (setting [18]) and in test [2] (setting [19]) were 200 ppb, 400 ppb and 200 ppb, respectively.

Turning to `CC1(C)S[C@@H]2[C@H](NC(=O)[C@H](N)c3ccc(O)cc3)C(=O)N2[C@H]1C(=O)O` [Amoxicillin], the sensitivity in test [1] (setting [5]) was 8 ppb; in test [1] (setting [6]), 4 ppb; in test [1] (setting [7]) it was 2 ppb; in test [1] (setting [8]) it was 2 ppb; in test [1] (setting [9]) it was 2 ppb; in test [1] (setting [10]), 2-4 ppb. Moreover, the sensitivity in test [1] (setting [11]) turned out to be 2 ppb; in test [1] (setting [12]), 4 ppb; in test [1] (setting [13]), 4 ppb; in test [1] (setting [14]), 4 ppb; in test [1] (setting [15]) it was 4 ppb; in test [1] (setting [16]), 4 ppb. Besides, the sensitivity in test [1] (setting [17]) is 4 ppb; in test [2] (setting [18]), 8 ppb; in test [2] (setting [19]), 4 ppb.

These data come from US8034580B2, “Determining presence of antibiotic in a fluid” (DSM IP Assets B.V., priority 2003, dated 2011).
